The subject of one series is K562 cells. Put plainly: Cell Titer Glo 2.0 cell viability (toxicity) assay, K562. The conditions noted are these: 500 cells/well, 72 hours. In general terms: ATP-based viability assays read luminescence as a measure of living cells.
A further series relates to HTT. Put plainly: HiBiT protein abundance assay, HTT (K562 HiBiT knock-in). As to conditions: HiBiT knock-in K562 cells, 24 hours, top dose 10 μM. It is filed as cell-based, human. The procedure, abridged: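 Endogenously HiBiT-tagged K562 lines were treated for 24 h at 37 °C with 10-point 3-fold dilutions (top 10 μM final, DMSO ≤0.25%). Lytic LgBiT complementation luminescence was normalized between unmodified K562 (PC) and DMSO-treated tagged cells (NC); IC50 was interpolated at 50% from a four-parameter logistic fit.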
A general note: With HiBiT, luminescence reflects the tagged protein that the partner subunit can reach.

A further series has as its system Target C. Put plainly: RT-qPCR canonical junction panel assay, Target C mRNA. As to conditions: Table 4, read-out: Target C IC50 (decrease in CJ mRNA levels). It is filed as cell-based. The procedure, abridged: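 A673 or K562 cells treated with compound; CJ mRNA quantified by junction-spanning RT-qPCR probe after cDNA synthesis, normalised to GAPDH, GUSB or PPIA and DMSO (2^−ΔΔCt), scaled to set ΔCt assay window; IC50 from 4-parameter fit of CJ decrease.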

This is an account of results in US20250092065A1, “2-(INDAZOL-5-YL)-6-(PIPERIDIN-4-YL)-1,7-NAPHTHYRIDINE DERIVATIVES AND RELATED COMPOUNDS AS MODULATORS FOR SPLICING NUCLEIC ACIDS AND FOR THE TREATMENT OF PROLIFERATIVE DISEASES” (REMIX THERAPEUTICS INC., priority 2022, published 2025).

Molecules are shown by their SMILES.

In general, IC50 refers to the concentration that inhibits the measured activity by half. Regarding `C[C@H]1C[C@H](c2ccc3nc(-c4cc5cn(C)nc5c(F)c4O)ccc3n2)CCN1` (single isomer, unassigned) [Compound 356], the “Effect of Exemplary Compounds on Cell Viability, K562” value (“Effect of Exemplary Compounds” for short) in the series with K562 cells was “A (A represents <100 nM)”. For the same compound, the IC50 was less than 100 nM with HTT and 100 to 1000 nM in the series on Target C.
As to `Cc1c(O)c(-c2ccc3nc(N4CC[C@H](N[C@H]5C[C@H](F)C5)C4)ccc3n2)cc2cn(C)nc12` (single isomer, unassigned) [Compound 358], the “Effect of Exemplary Compounds” value in the series on K562 cells is “B (B represents 100-1000 nM)”. For the same compound, the figures for the IC50 in the series with HTT and with Target C were less than 100 nM and 100 to 1000 nM, respectively.
For the compound `Cn1cc2cc(-c3ccc4nc(N5CC[C@@H](N)C5)ccc4n3)c(O)c(F)c2n1` (single isomer, unassigned) [Compound 362], the “Effect of Exemplary Compounds” value in the series on K562 cells is listed as “A (A represents <100 nM)”. Besides, the half-inhibitory concentration (IC50) was less than 100 nM in the series on HTT and 100 to 1000 nM in the series on Target C.
For the compound `CN[C@@H]1CCN(c2ccc3nc(-c4cc5cn(C)nc5c(C)c4O)ncc3n2)C1` (single isomer, unassigned) [Compound 368], the “Effect of Exemplary Compounds” value in the series on K562 cells is reported as “A (A represents <100 nM)”. Moreover, the IC50 in the series with HTT was in the range of 100 to 1000 nM; in the series with Target C, 1000 to 10000 nM.
Turning to `CN[C@H]1CCN(c2ccc3nc(-c4cc5cn(C)nc5c(C)c4O)ncc3n2)C1` (single isomer, unassigned) [Compound 369], in the series with K562 cells, the “Effect of Exemplary Compounds” value was “B (B represents 100-1000 nM)”. In addition, the results for the IC50 in the series on HTT and with Target C were 100 to 1000 nM and 1000 to 10000 nM, respectively.
Turning to `Cc1nc2c(F)c(O)c(-c3ccc4nc(N5CC[C@H](NC6(CF)CC6)C5)ccc4n3)cc2o1` (single isomer, unassigned) [Compound 373], in the series with K562 cells, the “Effect of Exemplary Compounds” value is “A (A represents <100 nM)”. Also, the IC50 in the series on HTT and in the series with Target C was less than 100 nM in each case.
In the case of `Cc1nc2c(C)c(O)c(-c3ccc4nc(N5CC[C@H](NC6(CF)CC6)C5)ccc4n3)cc2o1` (single isomer, unassigned) [Compound 378], in the series with K562 cells, the “Effect of Exemplary Compounds” value is “B (B represents 100-1000 nM)”. The IC50 in the series with HTT and in the series on Target C was less than 100 nM throughout.
In the case of `Cc1nc2c(C)c(O)c(-c3ccc4nc(N5CC[C@@H](NC6(CF)CC6)C5)ccc4n3)cc2o1` (single isomer, unassigned) [Compound 379], the “Effect of Exemplary Compounds” value in the series with K562 cells is given as “B (B represents 100-1000 nM)”. For the same compound, the IC50 in the series on HTT is less than 100 nM; in the series on Target C, 100 to 1000 nM.
For `Cn1cc2cc(-c3ncc4nc(N5CC[C@@H](N)C5)ccc4n3)c(O)c(F)c2n1` (single isomer, unassigned) [Compound 380] the same measures were “A (A represents <100 nM)”, less than 100 nM and 1000 to 10000 nM.
Take `C[C@H]1C[C@@H](c2ccc3nc(-c4cc5cn(C)nc5c(F)c4O)ccc3n2)CCN1` (single isomer, unassigned) [Compound 383]: in the series on K562 cells, the “Effect of Exemplary Compounds” value is “A (A represents <100 nM)”. The IC50 is less than 100 nM with HTT and 100 to 1000 nM in the series with Target C.
As to `Cn1cc2cc(-c3ccc4nc(C5CCNC[C@H]5O)ccc4n3)c(O)cc2n1` (single isomer, unassigned) [Compound 386], the “Effect of Exemplary Compounds” value with K562 cells is “C (C represents 1000-9999 nM)”. The figures for the IC50 in the series with HTT and in the series on Target C were 1000 to 10000 nM and more than 10000 nM, respectively.
On the same counts, the results for `Cn1cc2cc(-c3ccc4nc(N5CC[C@@H](NC(C)(C)C)C5)ccc4n3)c(O)c(F)c2n1` (single isomer, unassigned) [Compound 391] are “A (A represents <100 nM)”, less than 100 nM and less than 100 nM.
As to `Cn1cc2cc(-c3ccc4nc(N5CC[C@H](NC(C)(C)C)C5)ccc4n3)c(O)c(F)c2n1` (single isomer, unassigned) [Compound 392], the “Effect of Exemplary Compounds” value with K562 cells is reported as “A (A represents <100 nM)”. Further, the IC50 with HTT and in the series on Target C was less than 100 nM throughout.
For `Cc1c(O)c(-c2ncc3nc([C@@H]4CCNC4)ccc3n2)cc2cn(C)nc12` (single isomer, unassigned) [Compound 398], the “Effect of Exemplary Compounds” value in the series on K562 cells is given as “C (C represents 1000-9999 nM)”. Moreover, the IC50 was 1000 to 10000 nM in the series with HTT and more than 10000 nM in the series with Target C.
Turning to `Cc1nc2c(C)c(O)c(-c3ccc4nc(N5CC[C@@H](NC6CC6)C5)ncc4n3)cc2o1` (single isomer, unassigned) [Compound 432], the “Effect of Exemplary Compounds” value with K562 cells is “B (B represents 100-1000 nM)”. In addition, the IC50 with HTT and with Target C was less than 100 nM in each case.
`Cc1nc2cc(O)c(-c3ccc4nc(N5CC[C@@H](NC6CC6)C5)ncc4n3)cc2o1` (single isomer, unassigned) [Compound 434]: in the series on K562 cells, the “Effect of Exemplary Compounds” value was “B (B represents 100-1000 nM)”. Further, the IC50 in the series with HTT and in the series on Target C was 100 to 1000 nM in each case.
As to `Cc1nc2c(C)c(O)c(-c3ccc4cc(N5CC[C@@H](NC(C)(C)C)C5)ncc4n3)cc2o1` (single isomer, unassigned) [Compound 444], the “Effect of Exemplary Compounds” value in the series with K562 cells is reported as “B (B represents 100-1000 nM)”. Further, the values for the IC50 with HTT and in the series on Target C were less than 100 nM and 100 to 1000 nM, respectively.
On to `Cc1nc2c(C)c(O)c(-c3ccc4cc(N5CC[C@H](NC(C)(C)C)C5)ncc4n3)cc2o1` (single isomer, unassigned) [Compound 445], for which the “Effect of Exemplary Compounds” value in the series with K562 cells is “C (C represents 1000-9999 nM)”. In addition, the IC50 lay in the range of 100 to 1000 nM in the series with HTT and 1000 to 10000 nM with Target C.
`Cc1nc2cc(O)c(-c3ccc4nc(N5CC[C@@H](NC6(CF)CC6)C5)ccc4n3)cc2o1` (single isomer, unassigned) [Compound 488]: the “Effect of Exemplary Compounds” value in the series on K562 cells is “B (B represents 100-1000 nM)”. The IC50 in the series with HTT and in the series on Target C was less than 100 nM throughout.
As for `Cc1nc2cc(O)c(-c3ccc4nc(N5CC[C@H](NC6(CF)CC6)C5)ccc4n3)cc2o1` (single isomer, unassigned) [Compound 489], the “Effect of Exemplary Compounds” value with K562 cells is “A (A represents <100 nM)”. The IC50 is less than 100 nM in the series on HTT and 100 to 1000 nM in the series with Target C.
As to `Cc1nc2c(F)c(O)c(-c3ccc4nc(N5CC[C@@H](NC6(CF)CC6)C5)ccc4n3)cc2o1` (single isomer, unassigned) [Compound 491], the “Effect of Exemplary Compounds” value in the series with K562 cells is on record as “A (A represents <100 nM)”. For the same compound, the IC50 with HTT and in the series with Target C was less than 100 nM in each case.
`Cn1cc2cc(-c3ccc4nc(N5CCC(NC6(CF)CC6)C5)ccc4n3)c(O)c(F)c2n1` (stereo in doubt) [Compound 353, 7-fluoro-5-{6-[(3R)-3-{[1-(fluoromethyl)cyclopropyl]amino}pyrrolidin-1-yl]-1,5-naphthyridin-2-yl}-2-methylindazol-6-ol]: the “Effect of Exemplary Compounds” value with K562 cells was “A (A represents <100 nM)”. For the same compound, the IC50 in the series with HTT and with Target C was less than 100 nM each time.
In the case of `Cn1cc2cc(-c3ccc4nc(N5CCC(NC6(CF)CC6)C5)ccc4n3)c(O)c(F)c2n1` (stereo in doubt) [Compound 357, 7-fluoro-5-{6-[(3S)-3-{[1-(fluoromethyl)cyclopropyl]amino}pyrrolidin-1-yl]-1,5-naphthyridin-2-yl}-2-methylindazol-6-ol], the “Effect of Exemplary Compounds” value in the series on K562 cells is “A (A represents <100 nM)”. The IC50 in the series with HTT and in the series on Target C was less than 100 nM throughout.
For `Cn1cc2cc(-c3ccc4nc(N5CCC(N)C5)ccc4n3)c(O)c(F)c2n1` (stereo in doubt) [Compound 363, 5-{6-[(3R)-3-aminopyrrolidin-1-yl]-1,5-naphthyridin-2-yl}-7-fluoro-2-methylindazol-6-ol], the “Effect of Exemplary Compounds” value in the series on K562 cells is “A (A represents <100 nM)”. Also, the IC50 in the series on HTT and in the series with Target C was less than 100 nM in each case.
On to `Cc1nc2c(F)c(O)c(-c3ccc4nc(N5CC[C@@H](N[C@H]6C[C@@H](F)C6)C5)ccc4n3)cc2o1` (stereo in doubt) [Compound 375], for which the “Effect of Exemplary Compounds” value with K562 cells is reported as “A (A represents <100 nM)”. In addition, the IC50 with HTT and with Target C was less than 100 nM throughout.
For the compound `Cc1nc2c(C)c(O)c(-c3ccc4nc(N5CC[C@@H](N[C@H]6C[C@@H](F)C6)C5)ccc4n3)cc2o1` (stereo in doubt) [Compound 376], in the series with K562 cells, the “Effect of Exemplary Compounds” value was “B (B represents 100-1000 nM)”. The IC50 in the series on HTT was less than 100 nM; in the series on Target C it was 100 to 1000 nM.
On to `Cc1nc2c(C)c(O)c(-c3ccc4nc(N5CC[C@H](N[C@H]6C[C@@H](F)C6)C5)ccc4n3)cc2o1` (stereo in doubt) [Compound 377], for which the “Effect of Exemplary Compounds” value in the series with K562 cells is on record as “B (B represents 100-1000 nM)”. Moreover, the IC50 with HTT and with Target C was less than 100 nM in each case.
Take `Cc1nc2cc(O)c(-c3ccc4nc(N5CC[C@@H](N[C@H]6C[C@@H](F)C6)C5)ccc4n3)cc2o1` (stereo in doubt) [Compound 395]: in the series on K562 cells, the “Effect of Exemplary Compounds” value was “B (B represents 100-1000 nM)”. Also, the 50% inhibitory concentration (IC50) in the series with HTT fell in the range of 100 to 1000 nM; in the series on Target C, 1000 to 10000 nM.
As for `Cc1nc2cc(O)c(-c3ccc4nc(N5CC[C@H](N[C@H]6C[C@@H](F)C6)C5)ccc4n3)cc2o1` (stereo in doubt) [Compound 396], in the series with K562 cells, the “Effect of Exemplary Compounds” value is given as “B (B represents 100-1000 nM)”. The IC50 was less than 100 nM in the series on HTT and 100 to 1000 nM with Target C.
